Biological target: T1, TRIM24-PB chromatin binding in HeLa TRIM24-PB cells (Homo sapiens, UniProt O15164)
T1 construct: The FLAG-TRIM24-PB construct (residues 810–1050) was generated by PCR amplification; expressed in transfected cells
T1 sequence (O15164 810-1050): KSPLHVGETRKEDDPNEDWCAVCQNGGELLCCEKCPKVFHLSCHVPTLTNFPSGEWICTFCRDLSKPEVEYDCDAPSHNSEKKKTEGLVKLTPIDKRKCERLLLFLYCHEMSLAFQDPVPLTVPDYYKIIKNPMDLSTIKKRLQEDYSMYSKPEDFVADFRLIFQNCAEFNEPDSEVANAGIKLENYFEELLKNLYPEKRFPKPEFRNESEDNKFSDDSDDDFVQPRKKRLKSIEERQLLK
Assay: In situ cell extraction with IF in HeLa TRIM24-PB cells
Format: cell-based
Experimental: OV90 or HeLa cells (20,000 cells/100 µL) were seeded into 96-well plates (Corning Costar #3603) using RPMI or DMEM medium, respectively, supplemented with 10 % FBS and grown overnight. Test agents were serially diluted in DMSO (with or without SAHA) to generate 10X master compound plates. From here, 11 µL was transferred into each well containing 100 µL of growth media followed by shaking on a rotation table (15 min, 300 rpm at RT) and incubation at 37 °C for 2 h. Plates were washed once with PBS (150 µL/well) and then with cold, freshly prepared Cytoskeleton (CSK) Buffer (10 mM PIPES, 300 mM Sucrose, 100 mM NaCl, 3 mM MgCl2; pH = 6.8). Immediately thereafter, soluble, non-chromatin-bound proteins were extracted by addition of cold CSK Buffer supplemented with 0.5 % Triton X-100 (150 µL per well) for 10 min at 4 °C followed by 4 % paraformaldehyde fixation (10 min at RT) (Additional file 1: Table S3).
Standard IF procedures were used. Briefly, cells were permeabilized (0.5 % Triton X-100 in PBS) for 15 min and incubated with blocking solution (DAKO #X0909) for 30 min. The following primary antibodies were used: goat anti-V5 (Bethyl #A190-119A) 1:200; mouse anti-FLAG (Sigma #F1804) 1:200; rabbit anti-BRD4 (Abcam #ab128874) 1:200; rabbit anti-TRIM24 (Proteintech #14208-1-AP) 1:400; rabbit anti-K3K23Ac (Cell Signaling #8848) 1:200, and mouse anti-histone H3 (Active Motif #39763) 1:4000. Alexa Fluor-conjugated secondary antibodies were from Invitrogen and Hoechst 33342 (Invitrogen, #H3570) was used for nuclei counterstaining (10 µg/ml). For each Alexa fluorochrome, images (4–10 fields per well; 20X magnifications) were acquired using the Operetta High-Content Screening System (PerkinElmer). Image analysis was performed in Harmony software (PerkinElmer) by selecting nuclei and cytoplasm in Hoechst channel. Gating for single cells of flat morphology was done based on nuclei area, roundness and intensity of Hoechst in the nucleus and in the cytoplasm. In every gated cell, the mean signal intensity value for each fluorochrome was calculated separately in nucleus and cytoplasm. The specific nuclear signal was estimated subtracting mean cytoplasmic value from nuclear; and average value was calculated using at least 1000 cells in each well.
Supplemental Table S3 (Zhan et al.)
Table S3. In Situ Cell Extraction Procedure (IF)
Step Parameter Solution Volume Time Temp (°C)
Seed cells DMEM supplemented with 10 % FBS 37°C,
2 SAHA treatment SAHA (50 µM) in DMEM with 10% FBS 12 µL 2h 37°C,
3 Prepare Master 100X final concentration in assay 30 µL […]
Image analysis: The analysis was performed in Harmony (PerkinElmer) software by selecting nuclei and cytoplasm in Hoechst 33342 channel . […] For each channel “mean nuclear signal“ was calculated as “mean […]

`Cc1nc(S(=O)(=O)Nc2cc3c(cc2Oc2cccc(OCC(C)C)c2)n(C)c(=O)n3C)cn1C` [IACS-6558, N-{1,3-dimethyl-6-[3-(2-methylpropoxy)phenoxy]-2-oxo-2,3-dihydro-1H-1,3-benzodiazol-5-yl}-1,2-dimethyl-1H-imidazole-4-sulfonamide] was tested, and the “Time to displacement of TRIM24-PB from chromatin” value (HeLa TRIM24-PB) was at most 5 min and the “IF signal of chromatin-bound TRIM24-PB” value (HeLa TRIM24-PB with SAHA, anti-FLAG and anti-TRIM24 antibodies, 2 h) was “reducing the IF signal to baseline”.
`O=C(CCCCCCC(=O)Nc1ccccc1)NO` [SAHA, Suberoylanilide Hydroxamic Acid] was tested, and the “SAHA-induced TRIM24-PB chromatin binding (assay window)” value (anti-FLAG antibody) was “fivefold” and the “SAHA-induced TRIM24-PB chromatin binding (assay window)” value (anti-TRIM24 antibody) was “twofold”.
